Results: article PMC9578396, “Intrinsic Antibacterial Activity of Xeruborbactam In Vitro: Assessing Spectrum and Mode of Action” (Antimicrobial Agents and Chemotherapy, 2022)
In brackets after ≈: the same amount, converted by molar mass. Like-named read-outs stand apart in the source and are kept apart here.

What was measured:
[1] = target: T1, PBP1a (Escherichia coli, UniProt P02918); set-up: method as in PMID 18250190; conditions: read-out: IC50, PBP1a; value in parentheses; E. coli MC1400; cited from earlier work
T1 construct: Five microliters of total bacterial membrane preparation was mixed with 5 μL of a test compound; endogenous in cells; host or cells: Escherichia coli ECM5497 (MG1655), total membrane preparation
T1 sequence (P02918 whole entry): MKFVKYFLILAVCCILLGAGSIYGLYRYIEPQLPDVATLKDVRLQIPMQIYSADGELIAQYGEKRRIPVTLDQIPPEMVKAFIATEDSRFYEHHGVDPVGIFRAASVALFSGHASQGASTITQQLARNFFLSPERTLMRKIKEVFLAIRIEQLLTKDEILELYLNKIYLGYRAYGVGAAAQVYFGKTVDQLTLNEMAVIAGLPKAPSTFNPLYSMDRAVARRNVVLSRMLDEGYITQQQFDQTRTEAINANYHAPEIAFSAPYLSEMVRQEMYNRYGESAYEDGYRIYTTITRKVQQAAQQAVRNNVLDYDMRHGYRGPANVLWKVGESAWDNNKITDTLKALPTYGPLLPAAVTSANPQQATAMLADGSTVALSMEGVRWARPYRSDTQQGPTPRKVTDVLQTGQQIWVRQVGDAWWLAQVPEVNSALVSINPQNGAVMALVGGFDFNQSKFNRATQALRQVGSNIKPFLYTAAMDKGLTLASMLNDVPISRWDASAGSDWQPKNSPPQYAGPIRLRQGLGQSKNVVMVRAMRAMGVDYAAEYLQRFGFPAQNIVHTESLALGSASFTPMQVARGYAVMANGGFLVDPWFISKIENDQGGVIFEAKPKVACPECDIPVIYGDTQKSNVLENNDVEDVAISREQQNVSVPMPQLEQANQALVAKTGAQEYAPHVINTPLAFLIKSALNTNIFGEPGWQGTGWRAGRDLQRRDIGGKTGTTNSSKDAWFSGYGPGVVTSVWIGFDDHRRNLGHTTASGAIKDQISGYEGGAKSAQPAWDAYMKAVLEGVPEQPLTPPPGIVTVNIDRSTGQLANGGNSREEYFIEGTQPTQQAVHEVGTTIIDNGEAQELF

[2] = target: T2, PBP1b (Escherichia coli, UniProt P02919); set-up: method as in PMID 18250190; conditions: read-out: IC50, PBP1b; value in parentheses; E. coli MC1400; cited from earlier work
T2 construct: Five microliters of total bacterial membrane preparation was mixed with 5 μL of a test compound; endogenous in cells; host or cells: Escherichia coli ECM5497 (MG1655), total membrane preparation
T2 sequence (P02919 whole entry): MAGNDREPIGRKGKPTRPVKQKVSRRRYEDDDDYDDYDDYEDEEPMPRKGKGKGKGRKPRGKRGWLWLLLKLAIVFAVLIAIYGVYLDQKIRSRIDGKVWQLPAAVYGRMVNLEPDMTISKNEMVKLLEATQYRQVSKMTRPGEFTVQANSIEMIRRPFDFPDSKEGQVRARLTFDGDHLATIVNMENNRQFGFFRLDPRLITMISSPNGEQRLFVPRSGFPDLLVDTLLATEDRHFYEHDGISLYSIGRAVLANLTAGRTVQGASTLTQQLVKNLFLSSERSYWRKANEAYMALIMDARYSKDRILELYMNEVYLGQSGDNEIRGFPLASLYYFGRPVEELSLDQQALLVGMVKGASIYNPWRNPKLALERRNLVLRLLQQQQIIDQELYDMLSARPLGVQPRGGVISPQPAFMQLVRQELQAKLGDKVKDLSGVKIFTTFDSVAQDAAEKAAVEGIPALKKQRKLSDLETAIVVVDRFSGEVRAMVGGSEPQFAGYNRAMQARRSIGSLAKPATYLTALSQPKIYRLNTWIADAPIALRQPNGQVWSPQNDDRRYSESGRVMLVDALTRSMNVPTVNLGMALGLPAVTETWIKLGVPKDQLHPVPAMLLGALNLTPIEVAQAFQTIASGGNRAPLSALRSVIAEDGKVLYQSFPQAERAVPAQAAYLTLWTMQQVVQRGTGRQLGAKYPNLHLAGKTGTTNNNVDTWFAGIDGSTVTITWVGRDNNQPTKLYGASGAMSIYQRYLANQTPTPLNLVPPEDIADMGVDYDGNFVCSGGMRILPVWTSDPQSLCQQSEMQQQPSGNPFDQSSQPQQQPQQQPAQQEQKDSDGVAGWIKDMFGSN

[3] = target: PBP1a (Klebsiella pneumoniae, UniProt A0A0H3GZF1); set-up: method as in PMID 29712652; conditions: read-out: IC50, PBP1a; value in parentheses; K. pneumoniae ATCC 43816; cited from earlier work
Sequence of PBP1a (Klebsiella pneumoniae, UniProt A0A0H3GZF1) (A0A0H3GZF1 entry or part of it): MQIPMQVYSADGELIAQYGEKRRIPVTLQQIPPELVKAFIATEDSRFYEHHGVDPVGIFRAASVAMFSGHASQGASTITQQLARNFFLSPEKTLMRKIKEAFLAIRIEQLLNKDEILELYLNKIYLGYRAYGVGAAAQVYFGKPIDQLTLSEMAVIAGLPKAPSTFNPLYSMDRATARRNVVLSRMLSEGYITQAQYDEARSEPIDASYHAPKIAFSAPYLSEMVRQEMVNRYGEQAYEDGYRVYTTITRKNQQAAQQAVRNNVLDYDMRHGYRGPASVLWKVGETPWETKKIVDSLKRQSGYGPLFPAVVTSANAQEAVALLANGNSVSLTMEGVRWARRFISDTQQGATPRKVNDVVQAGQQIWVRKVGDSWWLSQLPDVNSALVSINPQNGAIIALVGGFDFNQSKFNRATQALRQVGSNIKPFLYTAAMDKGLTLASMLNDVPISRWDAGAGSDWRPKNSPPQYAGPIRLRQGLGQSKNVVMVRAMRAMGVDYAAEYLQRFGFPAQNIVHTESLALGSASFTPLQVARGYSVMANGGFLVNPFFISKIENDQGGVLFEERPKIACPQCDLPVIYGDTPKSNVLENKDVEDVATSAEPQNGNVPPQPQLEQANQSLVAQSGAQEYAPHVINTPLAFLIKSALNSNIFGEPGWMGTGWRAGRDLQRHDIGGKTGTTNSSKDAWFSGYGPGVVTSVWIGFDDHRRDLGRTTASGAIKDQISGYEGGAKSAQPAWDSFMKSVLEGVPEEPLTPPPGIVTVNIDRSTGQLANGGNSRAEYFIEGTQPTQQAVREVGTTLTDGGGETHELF

[4] = target: PBP3 (Klebsiella pneumoniae, UniProt A0A0H3GN85); set-up: method as in PMID 29712652; conditions: read-out: IC50, PBP3; value in parentheses; K. pneumoniae ATCC 43816; cited from earlier work
Sequence of PBP3 (A0A0H3GN85 entry or part of it): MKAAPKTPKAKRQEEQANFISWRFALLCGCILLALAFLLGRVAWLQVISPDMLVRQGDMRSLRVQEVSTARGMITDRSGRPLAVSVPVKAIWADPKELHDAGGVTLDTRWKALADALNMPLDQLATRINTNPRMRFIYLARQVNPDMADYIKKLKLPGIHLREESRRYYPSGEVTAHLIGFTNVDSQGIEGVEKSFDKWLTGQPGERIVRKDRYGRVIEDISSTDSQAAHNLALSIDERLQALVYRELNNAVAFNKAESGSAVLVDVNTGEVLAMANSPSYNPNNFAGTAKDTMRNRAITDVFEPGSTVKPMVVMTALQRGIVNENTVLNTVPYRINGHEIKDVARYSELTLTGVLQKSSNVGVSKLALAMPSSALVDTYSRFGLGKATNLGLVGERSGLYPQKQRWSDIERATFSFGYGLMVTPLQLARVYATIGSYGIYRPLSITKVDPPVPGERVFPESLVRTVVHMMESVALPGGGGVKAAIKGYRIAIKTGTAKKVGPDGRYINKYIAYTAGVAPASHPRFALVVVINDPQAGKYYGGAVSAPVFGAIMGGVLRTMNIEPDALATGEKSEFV

[5] = target: T3, PBP2 (Acinetobacter baumannii, UniProt D0C8Z9); set-up: method as in earlier work; conditions: value in parentheses; A. baumannii ATCC 19606; cited from earlier work
T3 construct: Five microliters of total bacterial membrane preparation was mixed with 5 μL of a test compound; endogenous in cells
T3 sequence (D0C8Z9 1-672): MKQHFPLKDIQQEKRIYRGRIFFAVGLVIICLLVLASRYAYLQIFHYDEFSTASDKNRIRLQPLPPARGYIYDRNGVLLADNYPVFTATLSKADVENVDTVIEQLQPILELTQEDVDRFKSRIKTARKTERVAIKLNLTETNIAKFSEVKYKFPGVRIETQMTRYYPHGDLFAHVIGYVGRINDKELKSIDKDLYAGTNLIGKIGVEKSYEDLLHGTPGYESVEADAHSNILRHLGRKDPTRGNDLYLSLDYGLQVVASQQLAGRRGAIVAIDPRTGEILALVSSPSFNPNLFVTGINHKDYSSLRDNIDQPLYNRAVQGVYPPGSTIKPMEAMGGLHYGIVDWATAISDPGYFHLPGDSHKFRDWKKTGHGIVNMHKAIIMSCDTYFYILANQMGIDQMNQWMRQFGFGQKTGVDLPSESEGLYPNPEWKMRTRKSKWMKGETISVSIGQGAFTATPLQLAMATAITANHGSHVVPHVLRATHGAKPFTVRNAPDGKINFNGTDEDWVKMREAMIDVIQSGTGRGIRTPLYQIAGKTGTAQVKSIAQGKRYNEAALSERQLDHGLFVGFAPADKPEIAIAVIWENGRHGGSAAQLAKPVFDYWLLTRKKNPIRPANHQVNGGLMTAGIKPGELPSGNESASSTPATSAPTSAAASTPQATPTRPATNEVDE

[6] = test system: Enterobacterales; test: Broth microdilution MIC (CLSI), Enterobacterales; assay type: cell-based
Source text: (§1) Bacterial isolates were subjected to broth microdilution susceptibility testing, performed according to Clinical and Laboratory Standards Institute (CLSI) methods ([46]), using panels prepared in-house. Meropenem was purchased from Sandoz, and all other antibiotics were from Sigma-Aldrich. Xeruborbactam was synthesized at Qpex Biopharma, San Diego, CA. Avibactam was purchased from eNovation Chemicals LLC, Bridgewater, NJ, USA; zidebactam was from MedKoo Biosciences, Inc., Morrisville, NC, and nacubactam was from Advanced ChemBlocks, Hayward, CA. Durlobactam was synthesized at Acme Bioscience, Palo Alto, CA, USA.

[7] = test system: Enterobacter cloacae species complex; test: Broth microdilution MIC (CLSI), Enterobacter cloacae; assay type: cell-based; conditions: for MIC: Enterobacter cloacae
Source text: as §1

[8] = test system: Klebsiella oxytoca; test: Broth microdilution MIC (CLSI), Klebsiella oxytoca; assay type: cell-based
Source text: as §1

[9] = test system: Serratia marcescens; test: Broth microdilution MIC (CLSI), Serratia marcescens; assay type: cell-based; conditions: 10 isolates
Source text: as §1

[10] = test system: strain ECM5497 of E. coli; test: Minimal bactericidal concentration (MBC), E. coli; assay type: cell-based; conditions: Escherichia coli
[11] = test system: strain AB1007 of A. baumannii; test: Minimal bactericidal concentration (MBC), A. baumannii; assay type: cell-based; conditions: Acinetobacter baumannii
[12] = test system: Klebsiella pneumoniae strain KPM1026a; test: Time-kill study; assay type: cell-based
[13] = test system: K. pneumoniae strain KPM1026a
Procedure: Beta-lactamase-negative strains of E. coli (strain ECM5497), A. baumannii (strain AB1007), and K. pneumoniae (strain KPM1026a) were used in resistance development studies. […] Colonies were incubated for 24 h at 37°C before the frequency of resistance emergence was calculated as the ratio of the number of CFU grown on the xeruborbactam-containing plate over the number of CFU recorded for xeruborbactam-free plates. Single colonies from xeruborbactam-containing plates were grown twice on a nonselective medium before their antimicrobial-resistance levels were assessed. For K. pneumoniae KPM1026a, several independent cultures were used in resistance studies.

[14] = test system: P. aeruginosa strain PAM1154; test: Fluorescence microscopy, cellular morphology; assay type: cell-based, Pseudomonas aeruginosa; conditions: treated at 1× or 2× MIC
Procedure: Single colonies of K. pneumoniae strain KPM1026a, A. baumannii strain ATCC 17978, and P. aeruginosa strain PAM1154 were picked from LB agar plates, inoculated in cation-adjusted Mueller-Hinton broth (CA-MHB), and incubated overnight at 30°C with rolling. Overnight cultures were diluted into fresh CA-MHB and incubated at 30°C, with rolling, until they reached an OD600 of ≈0.12 to 0.15 (equivalent to ~2 × 10^8 CFU/mL). Samples were then treated with compounds and incubated at 30°C, with rolling. After 1 or 2 h of treatment, cells were collected and stained with a dye mix containing FM4-64 (1 μg/mL), DAPI (4′,6-diamidino-2-phenylindole) (2 μg/mL), and SYTOX green (0.5 μM) (Molecular Probes, Invitrogen, or Thermo Fisher Scientific). Cells were transferred onto an agarose pad containing 1.2% agarose and 20% LB medium for microscopy. Microscopy was performed as previously described ([34]).

[15] = Enterobacterales, 1,028 isolates
[16] = Enterobacter cloacae species complex, 45 isolates
[17] = Klebsiella oxytoca, 23 isolates

Question: Which IC50 [1] does the source give for `C[C@@H](O)[C@H]1C(=O)N2C(C(=O)O)=C(S[C@@H]3CN[C@H](C(=O)N(C)C)C3)[C@H](C)[C@H]12` [Meropenem] here?
Answer: 4.4 µM

Question: What about the IC50 [2] of the same compound?
Answer: 3.4 µM

Question: What about the IC50 [3] of the same compound?
Answer: 5.2 µM

Question: And the IC50 [4]?
Answer: 0.31 µM

Question: And the IC50 [5]?
Answer: < 0.08 µM

Question: Which MIC50 [6, 15] does the source give for `O=C(O)c1c(F)ccc2c1OB(O)[C@@H]1C[C@H]21` [Xeruborbactam] here?
Answer: 16 µg/mL (≈ 72.1 µM)

Question: And the MIC90 [6, 15]?
Answer: 32 µg/mL (≈ 144 µM)

Question: What about the MIC range [6, 15] of the same compound?
Answer: 2 to 64 µg/mL

Question: What about the MIC ([6]; read-out: modal MIC) of the same compound?
Answer: 16 µg/mL (≈ 72.1 µM)

Question: What about the MIC ([6]; wild-type strains of Escherichia coli or Klebsiella pneumoniae, read-out: antibacterial potency (MIC)) of the same compound?
Answer: 8 to 16 µg/mL (≈ 36 to 72.1 µM)

Question: And the MIC50 [7, 16]?
Answer: 16 µg/mL (≈ 72.1 µM)

Question: And the MIC90 [7, 16]?
Answer: 32 µg/mL (≈ 144 µM)

Question: And the MIC range [7, 16]?
Answer: 4 to 64 µg/mL

Question: What about the MIC ([7]; Enterobacter cloacae species complex isolates, read-out: highest MIC observed) of the same compound?
Answer: 64 µg/mL (≈ 288 µM)

Question: What about the MIC ([7]; clinical isolate ECL1057, OmpK35 FN, OmpK36 NF, read-out: MIC) of the same compound?
Answer: 64 µg/mL (≈ 288 µM)

Question: And the MIC ([7]; clinical isolate ECL1079, OmpK35 NF, OmpK36 NF, read-out: MIC)?
Answer: 64 µg/mL (≈ 288 µM)

Question: And the MIC ([7]; clinical isolate ECL1126, OmpK35 FN, OmpK36 FN, read-out: MIC)?
Answer: 16 µg/mL (≈ 72.1 µM)

Question: And the MIC ([7]; clinical isolate ECL1131, OmpK35 NF, OmpK36 FN, read-out: MIC)?
Answer: 16 µg/mL (≈ 72.1 µM)

Question: What about the MIC ([8]; Klebsiella oxytoca isolates, read-out: highest MIC observed) of the same compound?
Answer: 32 µg/mL (≈ 144 µM)

Question: And the MIC50 [8, 17]?
Answer: 8 µg/mL (≈ 36 µM)

Question: And the MIC90 [8, 17]?
Answer: 16 µg/mL (≈ 72.1 µM)

Question: And the MIC range [8, 17]?
Answer: 8 to 32 µg/mL

Question: And the MIC50 [9]?
Answer: 32 µg/mL (≈ 144 µM)

Question: What about the MIC90 [9] of the same compound?
Answer: 32 µg/mL (≈ 144 µM)

Question: What about the MIC range [9] of the same compound?
Answer: 16 to 64 µg/mL

Question: And the MBC [10]?
Answer: 8 µg/mL (≈ 36 µM)

Question: And the MBC [11]?
Answer: 16 µg/mL (≈ 72.1 µM)

Question: And the kinetics of killing [12]?
Answer: time-dependent, concentration-independent bacterial killing

Question: What about the “frequency of resistance (FOR)” value ([13]; at 2× MIC) of the same compound?
Answer: 2 × 10^−8

Question: What about the “frequency of resistance (FOR)” value ([13]; at 4× MIC) of the same compound?
Answer: < 3 × 10^−9

Question: And the cellular morphology [14]?
Answer: filamentation and bulge formation at midcell and eventual cell lysis from the midpoint
